Among the data in patent US9809598B2 (Merck Patent GmbH, priority 2014, dated 2017) are IC50 and EC50 values, retold here.

Where a name gives a salt, the structure may show the parent alone.

Assay [1] has as its target T1, PARP-1 (Homo sapiens, UniProt P09874).
T1 construct: purchased Enzo Life Sciences GmbH, Lörrach, Germany
The assay can be described thus: PARP-1 autoparsylation assay (HTRF). It is filed as biochemical. The settings on record: His-tagged Parp-1, autoparsylation HTRF. The source says: Description of the PARP1 Assay
Biochemical Activity Testing of PARP-1: Autoparsylation Assay
The autoparsylation assay is run in two steps: the enzymatic reaction in which His-tagged Parp-1 transfers biotinylated ADP-ribose/ADP-ribose to itself from biotinylated NAD/NAD as co-substrate and the detection reaction where a time resolved FRET between cryptate labelled anti-His antibody bound to the His tag of the enzyme and Xlent® labelled-streptavidin bound the biotin-parsylation residue is analysed. The autoparsylation activity is detectable directly via the increase in HTRF signal.
The autoparsylation assay is performed as 384-well HTRF® (Cisbio, Codolet, France) assay format in Greiner low volume nb 384-well microtiter plates. […] The ratio of the emission signals is determined. The full value used is the inhibitor-free reaction. The pharmacological zero value used is Olaparib (LClabs, Woburn, US) in a final concentration of 1 μM. The inhibitory values (IC50) are determined using either the program Symyx Assay Explorer® or Condosseo® from GeneData.
In general terms: In TR-FRET formats the signal depends on donor and acceptor labels being close together.

The target of assay [2] is T2, TNKS1 (Homo sapiens, UniProt O95271).
T2 construct: GST-tagged Tnks-1 (1023-1327 aa, prepared in-house); made in house
Description: TNKS1 activity ELISA (autoparsylation assay). It counts as biochemical. The settings on record: GST-tagged Tnks-1 (1023-1327 aa). In short, it runs like this: (§1)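 GST-tagged TNKS1 or TNKS2 captured on glutathione plates and allowed to auto-PARsylate with biotinylated NAD with or without compound. Biotin-ADP-ribosylated enzyme detected by streptavidin-HRP and luminescence; IC50 relative to inhibitor-free reaction.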
(In general: An ELISA detects its analyte on a solid surface through an enzyme-linked reagent.)

The target in assay [3] is T3, TNKS2 (Homo sapiens, UniProt Q9H2K2).
T3 construct: GST-tagged Tnks-2 (873-1166 aa, prepared in-house); made in house
The assay can be described thus: TNKS2 activity ELISA (autoparsylation assay). It is filed as biochemical. Particulars: GST-tagged Tnks-2 (873-1166 aa); read-out: IC50 [M] TNKS2 ELISA. In short, it runs like this: as §1

Assay [4] has as its system Tankyrases. The settings on record: read-out: EC50 [M] TNKS cellular assay; DLD1 cells, 24 hours, Axin2 increase.

T2 sequence (O95271 1023-1327): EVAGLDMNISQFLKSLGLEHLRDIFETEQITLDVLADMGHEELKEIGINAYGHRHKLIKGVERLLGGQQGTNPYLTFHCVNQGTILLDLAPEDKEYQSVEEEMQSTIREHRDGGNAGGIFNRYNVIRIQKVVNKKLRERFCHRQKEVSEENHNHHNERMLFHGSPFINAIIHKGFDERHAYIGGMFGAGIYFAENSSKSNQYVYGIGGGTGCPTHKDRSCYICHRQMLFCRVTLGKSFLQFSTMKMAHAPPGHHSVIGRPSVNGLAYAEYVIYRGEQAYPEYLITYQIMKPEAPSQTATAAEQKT
T3 sequence (Q9H2K2 873-1166): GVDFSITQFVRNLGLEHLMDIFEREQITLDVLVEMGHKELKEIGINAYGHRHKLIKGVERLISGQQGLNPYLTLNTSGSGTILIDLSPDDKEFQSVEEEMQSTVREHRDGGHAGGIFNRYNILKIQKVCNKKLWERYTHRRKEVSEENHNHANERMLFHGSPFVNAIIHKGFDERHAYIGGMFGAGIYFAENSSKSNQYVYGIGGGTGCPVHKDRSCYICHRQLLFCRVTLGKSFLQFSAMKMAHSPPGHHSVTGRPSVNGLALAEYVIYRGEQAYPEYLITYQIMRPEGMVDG
T1 sequence (P09874 whole entry): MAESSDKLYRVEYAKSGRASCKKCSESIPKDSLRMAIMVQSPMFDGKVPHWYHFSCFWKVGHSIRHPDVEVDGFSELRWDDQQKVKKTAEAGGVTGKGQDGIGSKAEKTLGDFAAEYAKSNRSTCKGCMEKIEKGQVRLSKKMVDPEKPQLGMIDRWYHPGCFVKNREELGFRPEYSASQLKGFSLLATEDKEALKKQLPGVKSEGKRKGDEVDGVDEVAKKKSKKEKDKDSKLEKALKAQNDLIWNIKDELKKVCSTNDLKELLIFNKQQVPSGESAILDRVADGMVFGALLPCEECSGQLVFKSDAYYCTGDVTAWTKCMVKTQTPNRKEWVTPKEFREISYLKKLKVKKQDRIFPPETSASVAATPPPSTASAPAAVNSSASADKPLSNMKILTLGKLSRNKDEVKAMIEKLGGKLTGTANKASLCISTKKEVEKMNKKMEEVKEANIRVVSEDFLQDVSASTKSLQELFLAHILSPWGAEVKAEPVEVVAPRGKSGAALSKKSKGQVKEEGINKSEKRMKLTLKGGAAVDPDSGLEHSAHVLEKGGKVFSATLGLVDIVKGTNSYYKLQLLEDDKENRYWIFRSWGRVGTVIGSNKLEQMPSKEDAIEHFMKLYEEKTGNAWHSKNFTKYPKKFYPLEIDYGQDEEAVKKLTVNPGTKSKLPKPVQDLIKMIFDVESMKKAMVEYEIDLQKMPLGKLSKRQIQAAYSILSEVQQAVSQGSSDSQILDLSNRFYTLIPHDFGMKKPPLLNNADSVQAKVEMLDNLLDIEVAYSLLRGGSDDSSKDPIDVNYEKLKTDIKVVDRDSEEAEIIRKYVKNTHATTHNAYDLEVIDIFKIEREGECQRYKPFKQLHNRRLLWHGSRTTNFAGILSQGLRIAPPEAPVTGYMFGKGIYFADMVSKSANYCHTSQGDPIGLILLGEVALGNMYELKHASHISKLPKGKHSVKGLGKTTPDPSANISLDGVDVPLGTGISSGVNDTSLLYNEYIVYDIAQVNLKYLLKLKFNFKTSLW

As for `COc1ccc(C(=O)C2CCN(C(=O)CCCc3nc4c(C)scc4c(=O)[nH]3)CC2)cc1F` [Compound C113, 2-{4-[4-(3-Fluoro-4-methoxy-benzoyl)-piperidin-1-yl]-4-oxo-butyl}-7-methyl-3H-thieno[3,4-d]pyrimidin-4-one], the IC50 in assay [1] was found to be 29000 nM; in assay [2] it was 0.38 nM; in assay [3], 2.4e-10 M. The EC50 in assay [4] was found to be 2.6e-09 M.

As for `Cc1scc2c(=O)[nH]c(CCCC(=O)N3CCC(c4cnc(N)c(C#N)c4)CC3)nc12` [Compound C115, 6-Amino-1′-[4-(7-methyl-4-oxo-3,4-dihydro-thieno[3,4-d]pyrimidin-2-yl)-butyryl]-1′,2′,3′,4′,5′,6′-hexahydro-[3,4′]bipyridinyl-5-carbonitrile trifluoroacetate], the concentration for half-maximal inhibition (IC50) in assay [1] was 570 nM; in assay [2], 0.98 nM; in assay [3], 1.3e-09 M. Moreover, in assay [4], the 50% effective concentration (EC50) was found to be 4.9e-08 M.

Turning to `Cc1scc2c(=O)[nH]c(CCCC(=O)N3CCC(c4cnc(N)c(-c5ncccn5)c4)CC3)nc12` [Compound C116, 2-[4-(6-Amino-5-pyrimidin-2-yl-3′,4′,5′,6′-tetrahydro-2′H-[3,4′]bipyridinyl-1′-yl)-4-oxo-butyl]-7-methyl-3H-thieno[3,4-d]pyrimidin-4-one], the figures for the IC50 in assay [1], in assay [2] and in assay [3] were 970 nM, 0.37 nM and 2.1e-10 M, respectively. The EC50 in assay [4] turned out to be 3.6e-09 M.

As for `Cc1scc2c(=O)[nH]c(CCCC(=O)N3CCC(c4nnc(-c5ccccc5)o4)CC3)nc12` [Compound C117, 7-Methyl-2-{4-oxo-4-[4-(5-phenyl-[1,3,4]oxadiazol-2-yl)-piperidin-1-yl]-butyl}-3H-thieno[3,4-d]pyrimidin-4-one], the IC50 in assay [1] was found to be 820 nM; in assay [2], 8.2 nM; in assay [3] it was 5.7e-09 M. Further, in assay [4], the EC50 is 1.3e-07 M.

As to `Cc1scc2c(=O)[nH]c(CCCC(=O)N3CCC(Oc4ccc(C#N)cc4)CC3)nc12` [Compound C118, 4-{1-[4-(7-Methyl-4-oxo-3,4-dihydro-thieno[3,4-d]pyrimidin-2-yl)-butyryl]-piperidin-4-yloxy}-benzonitrile], the results for the IC50 in assay [1], in assay [2] and in assay [3] were 850 nM, 110 nM and 8.9e-08 M, respectively. Also, the EC50 in assay [4] was 9.1e-07 M.

`Cc1scc2c(=O)[nH]c(CCCC(=O)N3CCC(C(=O)c4ccc(F)cc4)CC3)nc12` [Compound C119, 2-{4-[4-(4-Fluoro-benzoyl)-piperidin-1-yl]-4-oxo-butyl}-7-methyl-3H-thieno[3,4-d]pyrimidin-4-one]: the 50% inhibitory concentration (IC50) in assay [1] was 850 nM; in assay [2], 0.9 nM; in assay [3], 6.2e-10 M. For the same compound, the EC50 in assay [4] stood at 3.3e-08 M.

Take `Cc1scc2c(=O)[nH]c(CCCC(=O)N3CCC(C(=O)c4ccc(C(C)(C)O)cc4)CC3)nc12` [Compound C121, 2-(4-{4-[4-(1-Hydroxy-1-methyl-ethyl)-benzoyl]-piperidin-1-yl}-4-oxo-butyl)-7-methyl-3H-thieno[3,4-d]pyrimidin-4-one]: the IC50 was 3100 nM in assay [1], 4.7 nM in assay [2] and 2.4e-09 M in assay [3]. Further, the EC50 in assay [4] turned out to be 6.8e-08 M.

`Cc1scc2c(=O)[nH]c(CCCC(=O)N3CCC(C(=O)c4cnn(C)c4)CC3)nc12` [Compound C123, 7-Methyl-2-{4-[4-(1-methyl-1H-pyrazole-4-carbonyl)-piperidin-1-yl]-4-oxo-butyl}-3H-thieno[3,4-d]pyrimidin-4-one]: the IC50 came to 1200 nM in assay [1], 0.67 nM in assay [2] and 5.7e-10 M in assay [3]. For the same compound, the half-maximal effective concentration (EC50) in assay [4] was determined as 3.4e-09 M.

As to `COc1ccc(C(=O)C2CCN(C(=O)CCCc3nc4c(C)csc4c(=O)[nH]3)CC2)cn1` [Compound C126, 2-{4-[4-(6-Methoxypyridine-3-carbonyl)-1-piperidyl]-4-oxo-butyl}-7-methyl-3H-thieno[3,2-d]pyrimidin-4-one], the IC50 in assay [1] amounted to 560 nM; in assay [2], 0.23 nM; in assay [3] it was 1.6e-10 M. The concentration for a half-maximal effect (EC50) in assay [4] came out at 1.3e-08 M.

For orientation: IC50 means the midpoint of a concentration-inhibition curve. The term EC50 denotes the concentration needed to bring the measured effect to its halfway point.
